# Counter-ions that a name gives are not always drawn.
# Columns and labels:
# [1] = tested on: Adjuvant arthritis; test: Activity for Treating Adjuvant Arthritis (hind paw volume); format: in vivo, Sprague Dawley strain male rats
# Protocol: Sprague Dawley strain male rats (eight week old) were used as test animals. […] Seventeen days after the sensitization, degree of swelling of hind pawls of each rat was determined by measuring the volume of its hind paws and the rats were divided into groups of 10 members each so that average degree of swelling for each of the groups was approximately equal. Each group of rats was orally administered with the test compound, disodium salt of N-2'-carboxyphenyl-4-chloroanthranilic acid, in a dose as shown in Table 5 once a day for a week starting on the seventeenth day after the sensitization. Degree of swelling of hind paws of each rat was measured every second or third day after the completion of the administration of the test compound till the 31st day from the sensitization. The reduction in volume of the hind paws was used as an index to evaluate the pharmacological activity.
# The results of the statistical test which was made on the values obtained on the 24th and 31st days from the sensitization are shown in Table 5.
# [2] = tested on: autoimmune glomerulonephritis; test: Activity for Treating a Model of Autoimmune Disease (glomerulonephritis); format: in vivo, New Zealand Black/White F1 female mice
# Protocol: Pharmacological activity of the test compound, disodium salt of N-2'-carboxyphenyl-4-chloroanthranilic acid, was studied by the use of glomerulonephritis of New Zealand Black/White F1 female mice as a model of autoimmune disease. The test animals were divided into groups of 8 members each and orally administered with the test compound in a dose of 5 mg/kg or 50 mg/kg once a day from 8 week old. Development of the disease was evaluated by measuring the level of protein in urine with Combistix test paper (Ames Co., Inc.). It was confirmed that the evaluation by the test paper closely corresponds to the results of a quantitative analysis by a sulfosalicyclic acid method. Changes in average level of protein in urine each of the groups during a period of from 20 weeks old to 35 weeks old of the mice are shown in FIG. 2. […] Further, 3 mice among 8 mice of the control group were died from glomerulonephritis during the period of from 35 to 40 weeks from their birth, while there was no death in the groups to which the test compound had been administered.
# [3] = tested on: neutrocyte; test: Activity for Improving Bacteriocidal Ability in Neutrocyte (NBT test); format: in vivo, JW/CSK strain white male rabbits; conditions: rabbit, oral 100 mg/kg
# Protocol: As test animals, JW/CSK strain white male rabbits weighing 3.0 - 3.9 kg were used, dividing them into groups of 5 members each. Each rabbit was orally administered with the test compound, disodium salt of N-2'-carboxyphenyl-4-chloroanthranilic acid in a dose of 100 mg/kg, and 24 hours after the administration, neutrocyte in the blood of the peripheral vessels were reacted with nitrobluetetrazorium (NBT) and then the proportion of cells positive to formazan was measured by a microscope. As the control, the value obtained from the same animal just 3 days before the administration of the test compound was referred to.
# [4] = tested on: lymphocites; test: Activity for Promoting Blastogenesis of Lymphocites (in vivo); set-up: species or system Wistar-Imamichi strain male rats
# Protocol: (§1) In this Experiment, influence of the test compound disodium salt of N-2'-carboxyphenyl-4-chloroanthranilic acid on blastogenesis of lymphocites was studied by the use of spleen cells and lymphonoid cells of mouse and rat. For in vitro test, C3 H/He strain male mice and for in vivo Wistar-Imamichi strain male rats were used respectively. Concanavallin A manufactured by Sigma was used as the blastogenetic factor in the in vitro test and lymphocites were cultured by the use of medium of RPMI 1640 manufactured by Grand Island Biological Co. The cultivation of the lymphocites was carried out in the medium at 37° C in a 5% carbon dioxide atmosphere for about 48 hours and after the addition of 0.5 μCi/ml of ^3 H-thymidine, the cells in the medium were incubated for 16 hours and then the lymphocites were separated. The radioactivity of the separated cells was measured by a scintillation counter and the value was evaluated as an indicator of blastogenetic degree. For the in vivo test, the in vitro test was repeated except that each rat was orally administered with the test compound in a dose of 5 or 50 mg/kg. In this case, the rats administered with the test compound were divided into groups of 3 members each and the cells to be cultivated from the rats in each group were placed under the same cultivation conditions. The results of the experiments are shown in FIG. 4 (in vitro) and FIG. 5 (in vivo), respectively.
# [5] = tested on: AH-13; test: Antitumor Activity to Transplanted Cancer Cells (AH-13); format: in vivo, Donryu strain female rats; conditions: for Average Survival Terms: control 7.1
# From the text: As test animals, Donryu strain female rats (8 week old) which were divided into groups of 10 members each were used. Each rat was intraperitoneally administered with test compound, disodium salt of N-2'-carboxyphenyl-4-chloroanthranilic acid, once a day for 10 days from 16 days before the inoculation of the tumor cells disclosed hereinbelow. Sixteen days after the first administration of the test compound, each rat was intraperitoneally inoculated with 10^6 tumor cells identified as AH-13 to induce cancer of abdominal dropsy.
# [6] = tested on: lymphocites; test: Activity for Promoting Blastogenesis of Lymphocites (in vitro); format: cell-based, C3 H/He strain male mice; conditions: 10^-1 to 10^-2 μg/ml
# Protocol: as §1, with “The results of the experiments are shown in FIG. 4 (in vitro) and FIG. 5 (in vivo), respectively.” left out
# [7] = tested on: Sarcoma-180; test: Antitumor Activity on Transplanted Tumor Cells (Sarcoma-180); format: in vivo, ddY strain male mice; conditions: 10 mg/kg oral once a day for 11 days; tumor weight 14 days after transplantation
# From the text: For test animals, ddY strain male mice weighing 20 - 25 g were used dividing into groups of 9 or 10 members each. Each of the mice was subjected to transplantation of 10^6 tumor cells (Sarcoma-180) at a portion of the root of a hind paw by subcutaneous injection to induce solid tumor. The test compound, disodium salt of N-2'-carboxyphenyl-4-chloroanthranilic acid, was orally administered once a day for 11 days from the day that transplantation was made. Fourteen days after the transplantation, the grown tumor tissue was taken out from each mouse and its wet weight was measured to evaluate antitumor activity of the test compound. […] For the reasons stated above, it is assumed that the activity of the test compound is based on host-mediated antitumor activity.
smiles,measurement,setting,value
O=C(O)c1ccccc1Nc1cc(Cl)ccc1C(=O)O [disodium salt of N-2'-carboxyphenyl-4-chloroanthranilic acid],volume of hind paws,"[1]; 0.1 mg/kg oral, day 24 after the sensitization",3.524 ± 0.170 mL
same,volume of hind paws,"[1]; 0.1 mg/kg oral, day 31 after the sensitization",3.762 ± 0.216 mL
same,volume of hind paws,"[1]; 1 mg/kg oral, day 24 after the sensitization",3.214 ± 0.161 mL
same,volume of hind paws,"[1]; 1 mg/kg oral, day 31 after the sensitization",3.289 ± 0.223 mL
same,volume of hind paws,"[1]; 5 mg/kg oral, day 24 after the sensitization, ** P<0.01",3.175 ± 0.100 mL
same,volume of hind paws,"[1]; 5 mg/kg oral, day 31 after the sensitization, * P<0.05",3.102 ± 0.141 mL
same,volume of hind paws,"[1]; 10 mg/kg oral, day 24 after the sensitization, ** P<0.01",3.027 ± 0.126 mL
same,volume of hind paws,"[1]; 10 mg/kg oral, day 31 after the sensitization, * P<0.05",3.121 ± 0.176 mL
same,volume of hind paws,"[1]; 100 mg/kg oral, day 24 after the sensitization",3.350 ± 0.168 mL
same,volume of hind paws,"[1]; 100 mg/kg oral, day 31 after the sensitization",3.482 ± 0.170 mL
same,activity for treating adjuvant arthritis of rat,[1]; 5 or 10 mg/kg oral,significant level of activity
same,suppression of autoimmune glomerulonephritis,[2]; 5 or 50 mg/kg oral once a day,significantly shows pharmacological activities to suppress autoimmune glomerulonephritis
same,level of protein in urine,"[2]; 5 or 50 mg/kg oral once a day, 20 to 35 weeks old, control rose after around 27 weeks",maintained a relatively steady level
same,death from glomerulonephritis,"[2]; 5 or 50 mg/kg oral, 35 to 40 weeks from birth, control 3 among 8 died",no death
same,proportion of neutrocyte cells positive to formazan,[3],significantly increased
same,NBT Value,"[3]; 24 h after, before treatment 11.4 ± 1.8, P<0.05, Average ± Standard Deviation",33.3 ± 7.8%
same,degree of promotion (S.I. value) of blastogenesis,"[4]; rat, oral 5 or 50 mg/kg, one day before Concanavallin A",about twice as large as that of the control
same,activity of Concanavallin A,"[4]; rat, oral 5 or 50 mg/kg, one day before Concanavallin A, vs control",increased to about double
same,improvement of the activity of Concanavallin A,"[4]; rats or mice, four days before Concanavallin A",the improvement of the activity was observed
same,T/C,[5]; 50 mg/kg i.p.,163%
same,host-mediated antitumor activity (AH-13),[5]; 50 mg/kg i.p.,exhibits host-mediated antitumor activity
same,Average Survival Terms,[5]; 50 mg/kg i.p.,11.6 days
same,T/C,[5]; 100 mg/kg i.p.,103%
same,Average Survival Terms,[5]; 100 mg/kg i.p.,7.3 days
same,T/C,[5]; 200 mg/kg i.p.,97%
same,Average Survival Terms,[5]; 200 mg/kg i.p.,6.9 days
same,activity of Concanavallin A (blastogenesis of lymphocites),[6],improved the activity of Concanavallin A
same,suppression of tumor growth (Sarcoma-180),[7],significant activity for suppression of tumor growth
